Measured values: patent US20220304307A1, “SYNERGISTIC MIXTURES FOR ARTHROPOD TOXICITY AND REPELLENCY” (University of Florida Research Foundation, Incorporated, priority 2019, published 2022)
Like-named read-outs stand apart in the source and are kept apart here.

Columns and labels:
[1] = test system: pyrethroid-resistant Puerto Rico (PR) strain of Ae. aegypti; assay: Glass tube spatial repellency assay, resistant strain; type: in vivo, Aedes aegypti; parameters: 1 h EC50-PR (repellency): unit not given here; conditions: compound alone; for RR (PR EC50/OR EC50): repellency resistance ratio; for 1 h EC50-PR (repellency): PR strain
Description: (§1) The following assay was conducted according to the procedures of Jiang et al., 2019 (Jiang S., Yang L, and Bloomquist J (2019) High-throughput screening method for evaluating spatial repellency and vapor toxicity to mosquitoes. Med. Vet. Entomol.). For assessing behavioral repellency (FIG. 1), sixteen female Aedes aegypti mosquitoes were transferred to a glass tube (12.5 cm long, 2.5 cm outer diameter) with the ends covered with netting. Metofluthrin, bifenthrin, permethrin, pyrethrum, transfluthrin, deltamethrin, esfenvalerate, metofluthrin acid, bifenthrin acid, phenothrin acid, transchryanthemic acid, transfluthrin acid, deltamethrin acid, and fenvalerate acid were each dissolved in 1 mL of acetone and serial dilutions ranging from 30-0.01 μg/ml were made. Circular filter papers (5 cm^2) were saturated with 50 μL of each concentration and allowed 10 min for solvent evaporation. The filter papers were then placed in clear conical polypropylene caps and fixed to the end of the glass tubes. The netting prevented mosquito contact with the filter paper. Tubes were then aligned with a mark denoting the midline and the proportion of mosquitoes on the chemically treated side was scored at 15, 30, and 60 min. At the end of the test, the tube was placed in a cage and the ability of the mosquitoes to fly out of the tube was assessed for 30 min. […] This post-test evaluated whether any non-responding mosquitoes (not repelled) was due to intoxication or disorientation from the test chemical. For vapor toxicity, the assay was identical, except that mosquitoes were kept in the tube for 24 hr without the post-test at 1 hr, and the mortality was recorded at 24 hr.
EC50 values were calculated from non-linear regression to a four parameter logistic equation (Prism, GraphPad Software, San Diego, Calif.) of the curves shown in FIG. 4. RR=resistance ratio. NA=data not yet available.

[2] = test system: Orlando insecticide-susceptible strain of Ae. aegypti (female mosquitoes); assay: Glass tube spatial repellency assay; type: in vivo, Aedes aegypti; parameters: 1 h EC50-OR (repellency): unit not given here; conditions: for 1 h EC50-OR (repellency): compound alone, OR strain; for 15 min repellency ratio / 30 min repellency ratio / 1 hr repellency ratio: horizontal tube, 0.5=0% repellency, 0=100% repellency
Description: as §1

[3] = test system: insecticide-susceptible Aedes aegypti (Orlando strain) females; assay: Glass tube vapor toxicity assay (24 hr mortality); conditions: for 24 hr mort (%): horizontal tube; for mortality at 100 µg/cm2: Aedes aegypti
Description: as §1
Synergism ratio (SR)=LC50 pyrethroid/LC50 pyrethroid+EO.

[4] = 0.25 h, read-out: 15 min % mortality
[5] = 0.5 h, read-out: 30 min % mortality
[6] = 1 h, read-out: 1 hr % mortality

Row | Compound | RR (PR EC50/OR EC50) [1] | 1 h EC50-OR (repellency) [2] | 1 h EC50-PR (repellency) [1] | 15 min repellency ratio ([2]; 10 μg/cm^2) | 30 min repellency ratio ([2]; 10 μg/cm^2) | 1 hr repellency ratio ([2]; 10 μg/cm^2) | 24 hr mort (%) ([3]; 10 μg/cm^2) | 24 hr mort (%) ([3]; 100 μg/cm^2) | mortality at 100 µg/cm2 [3, 4] | mortality at 100 µg/cm2 [3, 5] | mortality at 100 µg/cm2 [3, 6] | 15 min repellency ratio ([2]; 100 μg/cm^2) | 30 min repellency ratio ([2]; 100 μg/cm^2) | 1 hr repellency ratio ([2]; 100 μg/cm^2)
1 | CC(C)=CC1C(C(=O)O)C1(C)C (stereo not shown) [PhenA, phenothrin acid] | 0.8 | – | – | – | – | – | – | – | – | – | – | – | – | –
2 | CC=CC1C(C(=O)O)C1(C)C (stereo not shown) [MFA, metofluthrin acid] | 1.3 | 14 | 18 | – | – | – | – | – | – | – | – | – | – | –
3 | CC(C)(C)c1cccc(C=O)c1 [3-tert-butylbenzaldehyde] | – | – | – | 0.31 | 0.25 | 0.31 | 6.3% | 81.3% | 96.9% | 100% | 100% | – | – | –
4 | O=Cc1cccc(O)c1 [3-hydroxybenzaldehyde] | – | – | – | 0.56 | 0.53 | 0.56 | 21.9% | 15.6% | – | – | – | 0.41 | 0.41 | 0.56
5 | C=Cc1cccc(C=O)c1 [3-vinylbenzaldehyde] | – | – | – | 0.50 | 0.50 | 0.31 | 100.0% | 6.3% | – | – | – | 0.19 | 0.25 | 0.19
6 | CC(C)[C@H](C(=O)O)c1ccc(Cl)cc1 [FVA, fenvalerate acid] | 1.7 | – | – | – | – | – | – | – | – | – | – | – | – | –
7 | O=Cc1cccc(Cl)c1 [3-chlorobenzaldehyde] | – | – | – | 0.28 | 0.34 | 0.41 | 31.3% | 100.0% | 50% | 75% | 100% | – | – | –
8 | CC1(C)C(C=C(Cl)C(F)(F)F)C1C(=O)O (stereo not shown) [BFA, bifenthrin acid] | 0.8 | 14 | 11 | – | – | – | – | – | – | – | – | – | – | –
9 | trifluoromethoxybenzaldehyde | – | – | – | 0.38 | 0.38 | 0.44 | 6.3% | 0.0% | – | – | – | 0.31 | 0.31 | 0.50
10 | O=Cc1cccc(C=O)c1 [isophthalaldehdye] | – | – | – | 0.41 | 0.41 | 0.41 | 40.6% | 87.5% | – | – | – | 0.03 | 0.09 | 0.06
11 | O=Cc1cccc(C(=O)O)c1 [3-formyl benzoic acid] | – | – | – | 0.50 | 0.47 | 0.47 | 6.3% | 9.4% | – | – | – | 0.53 | 0.56 | 0.56
